The results in this text go back to patent publication US9487483B2, “Complement pathway modulators and uses thereof” (priority 2012, dated 2016).

For the first experiment, the target named is Recombinant human factor D (Homo sapiens (Human), UniProt P00746). Put plainly: biochemical. Type of experiment: biochemical. The settings on record: Factor D inhibition data using Method 1; substrate Z-Lys-thiobenzyl, fluorescence readout; read-out: IC50.
Recombinant human factor D, sequence (P00746 26-253): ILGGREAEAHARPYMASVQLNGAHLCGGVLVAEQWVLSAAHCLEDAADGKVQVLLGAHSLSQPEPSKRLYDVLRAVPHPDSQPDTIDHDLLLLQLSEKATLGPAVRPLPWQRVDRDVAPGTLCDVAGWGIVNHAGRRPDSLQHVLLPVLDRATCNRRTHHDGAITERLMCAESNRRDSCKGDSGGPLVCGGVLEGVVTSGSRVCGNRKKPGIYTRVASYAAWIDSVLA
Method: Human Complement Factor D Assay: Method 1
Recombinant human factor D (expressed in E. coli and purified using standard methods) at 10 nM concentration is incubated with test compound at various concentrations for 1 hour at room temperature in 0.1 M Hepes buffer, pH 7.5, containing 1 mM MgCl2, 1 M NaCl and 0.05% CHAPS. […] IC50 values are calculated from percentage of inhibition of complement factor D-activity as a function of test compound concentration.
Turning to `CC1(C)CCC[C@@H](NC(=O)[C@@H]2C[C@H]3C[C@H]3N2C(=O)Cn2nc(C(N)=O)c3ccncc32)C1` [Example 56, 1-{2-[(1R,3S,5R)-3-((R)-3,3-Dimethyl-cyclohexylcarbamoyl)-2-aza-bicyclo[3.1.0]hex-2-yl]-2-oxo-ethyl}-1H-pyrazolo[3,4-c]pyridine-3-carboxylic acid amide], the IC50 – broadly, the concentration at which inhibition is half-maximal – is 37 nM.

`Cc1ccc2c(c1)c(C(N)=O)nn2CC(=O)N1[C@@H]2C[C@@H]2C[C@H]1C(=O)N[C@@H]1CCCC(C)(C)C1` [Example 59, 1-{2-[(1R,3S,5R)-3-((R)-3,3-Dimethyl-cyclohexylcarbamoyl)-2-aza-bicyclo[3.1.0]hex-2-yl]-2-oxo-ethyl}-5-methyl-1H-indazole-3-carboxylic acid amide]: the IC50 was 43 nM.

Consider `CC1(C)CCC[C@@H](NC(=O)[C@@H]2C[C@H]3C[C@H]3N2C(=O)Cn2nc(C(N)=O)c3ccc(F)cc32)C1` [Example 60, 1-{2-[(1R,3S,5R)-3-((R)-3,3-Dimethyl-cyclohexylcarbamoyl)-2-aza-bicyclo[3.1.0]hex-2-yl]-2-oxo-ethyl}-6-fluoro-1H-indazole-3-carboxylic acid amide], for which the IC50 was found to be 22 nM.

`CC1(C)CCC[C@@H](NC(=O)[C@@H]2C[C@H]3C[C@H]3N2C(=O)Cn2nc(C(N)=O)c3ccc(Cl)cc32)C1` [Example 62, 6-Chloro-1-{2-[(1R,3S,5R)-3-((R)-3,3-dimethyl-cyclohexylcarbamoyl)-2-aza-bicyclo[3.1.0]hex-2-yl]-2-oxo-ethyl}-1H-indazole-3-carboxylic acid amide]: the IC50 is 24 nM.

For `Cc1cc2c(C(N)=O)nn(CC(=O)N3[C@@H]4C[C@@H]4C[C@H]3C(=O)N[C@@H]3CCCC(C)(C)C3)c2cn1` [Example 63, 1-{2-[(1R,3S,5R)-3-((R)-3,3-Dimethyl-cyclohexylcarbamoyl)-2-aza-bicyclo[3.1.0]hex-2-yl]-2-oxo-ethyl}-5-methyl-1H-pyrazolo[3,4-c] pyridine-3-carboxylic acid amide], the IC50 worked out at 49 nM.

On to `CCc1cc2c(C(N)=O)nn(CC(=O)N3[C@@H]4C[C@@H]4C[C@H]3C(=O)N[C@@H]3CCCC(C)(C)C3)c2cn1` [Example 64, 1-{2-[(1R,3S,5R)-3-((R)-3,3-Dimethyl-cyclohexylcarbamoyl)-2-aza-bicyclo[3.1.0]hex-2-yl]-2-oxo-ethyl}-5-ethyl-1H-pyrazolo[3,4-c]pyridine-3-carboxylic acid amide], for which the IC50 came out at 24 nM.

Take `CC(=O)c1cn(CC(=O)N2[C@@H]3C[C@@H]3C[C@H]2C(=O)N[C@@H]2CCCC(C)(C)C2)c2nnccc12` [Example 66, (1R,3S,5R)-2-[2-(5-Acetyl-pyrrolo[2,3-c]pyridazin-7-yl)-acetyl]-2-aza-bicyclo[3.1.0] hexane-3-carboxylic acid ((R)-3,3-dimethyl-cyclohexyl)-amide]: the IC50 amounted to 1210 nM.

With `CO[C@@H]1CCC[C@@H](NC(=O)[C@@H]2C[C@H]3C[C@H]3N2C(=O)Cn2nc(C(C)=O)c3cc(OCc4ncccn4)ccc32)C1` [Example 69, (1R,3S,5R)-2-{2-[3-Acetyl-5-(pyrimidin-2-ylmethoxy)-indazol-1-yl]-acetyl}-2-aza-bicyclo [3.1.0]hexane-3-carboxylic acid ((1R,3R)-3-methoxy-cyclohexyl)-amide], the IC50 worked out at 143 nM.

Regarding `CC[C@@H]1CCC[C@H](NC(=O)[C@@H]2C[C@H]3C[C@H]3N2C(=O)Cn2nc(C(N)=O)c3ccncc32)C1` [Example 72, 1-{2-[(1R,3S,5R)-3-((1S,3R)-3-Ethyl-cyclohexylcarbamoyl)-2-aza-bicyclo[3.1.0]hex-2-yl]-2-oxo-ethyl}-1H-pyrazolo[3,4-c]pyridine-3-carboxylic acid amide], the IC50 worked out at 1700 nM.

Consider `CC[C@H]1CCC[C@@H](NC(=O)[C@@H]2C[C@H]3C[C@H]3N2C(=O)Cn2nc(C(N)=O)c3ccncc32)C1` [Example 73, 1-{2-[(1R,3S,5R)-3-((1R,3S)-3-ethyl-cyclohexylcarbamoyl)-2-aza-bicyclo[3.1.0]hex-2-yl]-2-oxo-ethyl}-1H-pyrazolo[3,4-c]pyridine-3-carboxylic acid amide], for which the IC50 worked out at 29 nM.

For the compound `CC1(C)CCC[C@@H](NC(=O)[C@@H]2C[C@@H](F)CN2C(=O)Cn2nc(C(N)=O)c3ccccc32)C1` [Example 82, 1-{2-[(2S,4R)-2-((R)-3,3-Dimethyl-cyclohexylcarbamoyl)-4-fluoro-pyrrolidin-1-yl]-2-oxo-ethyl}-1H-indazole-3-carboxylic acid amide], the IC50 came to 38 nM.

In the case of `CC[C@H]1CCC[C@@H](NC(=O)[C@@H]2C[C@H]3C[C@H]3N2C(=O)Cn2nc(C(N)=O)c3cc(C)ncc32)C1` [Example 83, 1-{2-[(1R,3S,5R)-3-((1R,3S)-3-Ethyl-cyclohexylcarbamoyl)-2-aza-bicyclo[3.1.0]hex-2-yl]-2-oxo-ethyl}-5-methyl-1H-pyrazolo[3,4-c]pyridine-3-carboxylic acid amide], the IC50 was determined as 50 nM.

For the compound `CO[C@H]1[C@@H](C(=O)N[C@@H]2CCCC(C)(C)C2)N(C(=O)Cn2nc(C(N)=O)c3ccccc32)C[C@@H]1F` [Example 84, 1-{2-[(2S,3S,4S)-2-((R)-3,3-Dimethyl-cyclohexylcarbamoyl)-4-fluoro-3-methoxy-pyrrolidin-1-yl]-2-oxo-ethyl}-1H-indazole-3-carboxylic acid amide], the IC50 came to 60 nM.

For the compound `CO[C@H]1[C@@H](C(=O)N[C@H]2CCCC(C)(C)C2)N(C(=O)Cn2nc(C(N)=O)c3ccccc32)C[C@@H]1F` [Example 85, 1-{2-[(2S,3S,4S)-2-((S)-3,3-Dimethyl-cyclohexylcarbamoyl)-4-fluoro-3-methoxy-pyrrolidin-1-yl]-2-oxo-ethyl}-1H-indazole-3-carboxylic acid amide], the IC50 was found to be 585 nM.

For `CC1(C)CCC[C@@H](NC(=O)[C@@H]2[C@@H]3C[C@@H]3CN2C(=O)Cn2nc(C(N)=O)c3ccncc32)C1` [Example 86, 1-{2-[(1R,2S,5S)-2-((R)-3,3-Dimethyl-cyclohexylcarbamoyl)-3-aza-bicyclo[3.1.0]hex-3-yl]-2-oxo-ethyl}-1H-pyrazolo[3,4-c]pyridine-3-carboxylic acid amide], the IC50 came to 58 nM.

For the compound `CC1(C)CCC[C@H](NC(=O)[C@@H]2[C@@H]3C[C@@H]3CN2C(=O)Cn2nc(C(N)=O)c3ccncc32)C1` [Example 87, 1-{2-[(1R,2S,5S)-2-((S)-3,3-Dimethyl-cyclohexylcarbamoyl)-3-aza-bicyclo[3.1.0]hex-3-yl]-2-oxo-ethyl}-1H-pyrazolo[3,4-c]pyridine-3-carboxylic acid amide], the IC50 was found to be 6620 nM.

Turning to `CO[C@H]1CCC[C@@H](NC(=O)[C@@H]2C[C@H]3C[C@H]3N2C(=O)Cn2nc(C(C)=O)c3cc(OCc4ncccn4)ccc32)C1` [Example 94, (1R,3S,5R)-2-{2-[3-Acetyl-5-(pyrimidin-2-ylmethoxy)-indazol-1-yl]-acetyl}2-aza-bicyclo[3.1.0]hexane-3-carboxylic acid ((1R,3S)-3-methoxy-cyclohexyl)-amide], the IC50 is 138 nM.

As for `CC(=O)c1nn(CC(=O)N2[C@@H]3C[C@@H]3C[C@H]2C(=O)N[C@@H]2CCC[C@H](C(F)(F)F)C2)c2ccc(OCc3ncccn3)cc12` [Example 95, (1R,3S,5R)-2-{2-[3-Acetyl-5-(pyrimidin-2-ylmethoxy)-indazol-1-yl]-acetyl}-2-aza-bicyclo[3.1.0]hexane-3-carboxylic acid ((1R,3S)-3-trifluoromethyl-cyclohexyl)-amide], the IC50 is 25 nM.

The experiment is the same for the next values; noted with them: read-out: IC50.
For the compound `Cc1nccc2c(C(N)=O)nn(CC(=O)N3[C@@H]4C[C@@H]4C[C@H]3C(=O)N[C@@H]3CCCC(C)(C)C3)c12` [Example 65, 1-{2-[(1R,3S,5R)-3-((R)-3,3-Dimethyl-cyclohexylcarbamoyl)-2-aza-bicyclo[3.1.0]hex-2-yl]-2-oxo-ethyl}-7-methyl-1H-pyrazolo[3,4-c]pyridine-3-carboxylic acid amide], the IC50 came to 38 nM.

As for `CC1(C)CCC[C@H](NC(=O)[C@@H]2C[C@@H](F)CN2C(=O)Cn2nc(C(N)=O)c3ccncc32)C1` [Example 70, 1-{2-[(2S,4R)-2-((S)-3,3-Dimethyl-cyclohexylcarbamoyl)-4-fluoro-pyrrolidin-1-yl]-2-oxo-ethyl}-1H-pyrazolo[3,4-c]pyridine-3-carboxylic acid amide], the IC50 stood at 2090 nM.

In the case of `CC1(C)CCC[C@@H](NC(=O)[C@@H]2C[C@@H](F)CN2C(=O)Cn2nc(C(N)=O)c3ccncc32)C1` [Example 71, 1-{2-[(2S,4R)-2-((R)-3,3-Dimethyl-cyclohexylcarbamoyl)-4-fluoro-pyrrolidin-1-yl]-2-oxo-ethyl}-1H-pyrazolo[3,4-c]pyridine-3-carboxylic acid amide], the IC50 amounted to 41 nM.

Turning to `CC1=CC(NC(=O)[C@@H]2C[C@H]3C[C@H]3N2C(=O)Cn2nc(C(N)=O)c3ccccc32)CCC1` (stereo partly drawn) [Example 74, 1-{2-[(1R,3S,5R)-3-(3-Methyl-cyclohex-2-enylcarbamoyl)-2-aza-bicyclo[3.1.0]hex-2-yl]-2-oxo-ethyl}-1H-indazole-3-carboxylic acid amide], the concentration for half-maximal inhibition (IC50) worked out at 132 nM.

For `CCc1cc2c(C(N)=O)nn(CC(=O)N3C[C@H](F)C[C@H]3C(=O)N[C@@H]3CCCC(C)(C)C3)c2cn1` [Example 81, 1-{2-[(2S,4R)-2-((R)-3,3-Dimethyl-cyclohexylcarbamoyl)-4-fluoro-pyrrolidin-1-yl]-2-oxo-ethyl}-5-ethyl-1H-pyrazolo[3,4-c]pyridine-3-carboxylic acid amide], the IC50 amounted to 39 nM.

Take `CC1(C)CCC[C@@H](NC(=O)[C@@H]2[C@@H]3C[C@@H]3CN2C(=O)Cn2nc(C(N)=O)c3ccccc32)C1` [Example 88, 1-{2-[(1R,2S,5S)-2-((R)-3,3-Dimethyl-cyclohexylcarbamoyl)-3-aza-bicyclo[3.1.0]hex-3-yl]-2-oxo-ethyl}-1H-indazole-3-carboxylic acid amide]: the IC50 came out at 34 nM.

Turning to `CC1(C)CCC[C@H](NC(=O)[C@@H]2[C@@H]3C[C@@H]3CN2C(=O)Cn2nc(C(N)=O)c3ccccc32)C1` [Example 89, 1-{2-[(1R,2S,5S)-2-((S)-3,3-Dimethyl-cyclohexylcarbamoyl)-3-aza-bicyclo[3.1.0]hex-3-yl]-2-oxo-ethyl}-1H-indazole-3-carboxylic acid amide], the IC50 was determined as 2130 nM.
